Patent US20100190794A1, “Herbicidally Active Composition” (BASF SE, priority 2007, published 2010)

Legend:
Assay in all cases: greenhouse test, pre-emergence treatment
LOLMU = format: in vivo, Lolium multiflorum; settings: 25 g/ha a.s., Use Example 11
Description: (§1) The culture containers used were plastic pots containing loamy sand with approximately 3.0% of humus as substrate. The seeds of the test plants were sown separately for each species.
(§2) For the pre-emergence treatment, the active compounds, suspended or emulsified in water, were applied directly after sowing by means of finely distributing nozzles. The containers were irrigated gently to promote germination and growth and subsequently covered with transparent plastic hoods until the plants had rooted. This cover caused uniform germination of the test plants unless this was adversely affected by the active compounds.
(§3) Depending on the species, the plants were kept at 10-25° C. and 20-35° C., respectively. The test period extended over 2 to 4 weeks. During this time, the plants were tended and their response to the individual treatments was evaluated.
(§4) Evaluation was carried out using a scale from 0 to 100. 100 means no emergence of the plants, or complete destruction of at least the above-ground parts, and 0 means no damage or normal course of growth. Good herbicidal activity is given at values of at least 70, and very good herbicidal activity is given at values of at least 85.
(§5) The respective stated components A and B, and if appropriate, C were formulated as a 5% by weight or 10% by weight strength emulsion concentrate or a commercially available formulation of component B was used and, with addition of the amount of solvent system, introduced into the spray liquor used for applying the active compound. In the examples, the solvent used was water.
(§6) The test period extended over 20 or 21 days. During this time, the plants were tended, and their reactions to the treatment with active compound was monitored.
(§7) What was evaluated was the damage by the chemical compositions using a scale of from 0 to 100%, in comparison to the untreated control plants. 0 means no damage, and 100 means complete destruction of the plants.
(§8) In the examples below, using the method of S. R. Colby (1967) “Calculating synergistic and antagonistic responses of herbicide combinations”, Weeds 15, p. 22 ff., the value E, which is expected if the activity of the individual active compounds is only additive, was calculated.
(§9) where X=percent activity using active compound A at an application rate a; Y=percent activity using active compound B at an application rate b; E=expected activity (in %) by A+B at application rates a+b.
(§10) If the value found in experiments is higher than the value E calculated according to Colby, a synergistic effect is present.

ECHCG = format: in vivo, Echinochloa crus-galli; settings: Use Example 22
Description: as §1, §2, §3, §4, §5, §6, §7, §8, §9, §10

BRAPL = format: in vivo, Brachiaria plantaginea; settings: Use Example 12
Description: as §1, §2, §3, §4, §5, §6, §7, §8, §9, §10

DIGSA = format: in vivo, Digitaria sanguinalis; settings: Use Example 22
Description: as §1, §2, §3, §4, §5, §6, §7, §8, §9, §10

SETVI = format: in vivo, Setaria viridis; settings: 25 g/ha a.s., Use Example 11
Description: as §1, §2
Depending on the species, the plants were kept at 10-25° C. and 20-35° C., respectively. […] During this time, the plants were tended and their response to the individual treatments was evaluated. […]
as §6
(§11) What was evaluated was the damage by the chemical compositions using a scale of from 0 to 100%, in comparison to the untreated control plants. […]
(§12) In the examples below, using the method of S. R. Colby (1967) “Calculating synergistic and antagonistic responses of herbicide combinations”, Weeds 15, p. 22 ff., the value E, which is expected if the activity of the individual active compounds is only additive, was calculated. […]

LAMPU = format: in vivo, Lamium purpureum; settings: 25 g/ha a.s., Use Example 11
Description: as §1, §2, §3, §4, §5, §6, §7, §8, §9, §10

SETFA = format: in vivo, Setaria faberi
Description: as §1, §2, §3, §4, §5, §6, §7, §8, §9, §10

SOLNI = format: in vivo, Solanum nigrum L.; settings: Use Example 22
Description: as §1, §2, §3, §4, §5, §6, §7, §8, §9, §10

AVEFA = format: in vivo, Avena fatua; settings: 6.25 g/ha a.s., Use Example 6
Description: as §1, §2, §3
as §4, with “85. […]” for “85.”
as §6, §11, §12, §10

POAAN = format: in vivo, Poa annua; settings: 6.25 g/ha a.s., Use Example 6
Description: as §1, §2, §3, §4, §5, §6, §7, §8, §9, §10

SMILES	Herbicidal action in % after 21 days against LOLMU (LOLMU) [%]	Herbicidal action in % after 20 days against ECHCG (ECHCG; 6.25 g/ha a.s.) [%]	Herbicidal action in % after 20 days against ECHCG (ECHCG; 13 g/ha a.s.) [%]	Herbicidal action in % after 20 days against BRAPL (BRAPL; 12.5 g/ha a.s.) [%]	Herbicidal action in % after 20 days against BRAPL (BRAPL; 25 g/ha a.s.) [%]	Herbicidal action in % after 20 days against DIGSA (DIGSA; 6.25 g/ha a.s.) [%]	Herbicidal action in % after 20 days against DIGSA (DIGSA; 13 g/ha a.s.) [%]	Herbicidal action in % after 21 days against SETVI (SETVI) [%]	Herbicidal action in % after 21 days against LAMPU (LAMPU) [%]	Herbicidal action in % after 20 days against SETFA (SETFA; 6.25 g/ha a.s., Use Example 22) [%]	Herbicidal action in % after 20 days against SETFA (SETFA; 12.5 g/ha a.s., Use Example 12) [%]	Herbicidal action in % after 20 days against SETFA (SETFA; 13 g/ha a.s., Use Example 22) [%]	Herbicidal action in % after 20 days against SETFA (SETFA; 25 g/ha a.s., Use Example 12) [%]	Herbicidal action in % after 20 days against SOLNI (SOLNI; 6.25 g/ha a.s.) [%]	Herbicidal action in % after 20 days against SOLNI (SOLNI; 13 g/ha a.s.) [%]	Herbicidal action in % after 20 days against AVEFA (AVEFA) [%]	Herbicidal action in % after 20 days against POAAN (POAAN) [%]
Cn1nc(C(F)(F)F)c(CS(=O)(=O)C2=NOC(C)(C)C2)c1OC(F)F [Pyroxasulfone]	90	55	85	40	75	70	95	100	55	75	75	98	98	40	85		
CC(C)N(C)S(=O)(=O)NC(=O)c1cc(-n2c(=O)cc(C(F)(F)F)n(C)c2=O)c(F)cc1Cl [2-chloro-5-[3,6-dihydro-3-methyl-2,6-dioxo-4-(trifluoromethyl)-1(2H)-pyrimidinyl]-4-fluoro-N-[(isopropyl)methylsulfamoyl]benzamide, reference compound]																0	0
